# Reference: patent US20230190762A1, “STABLE VARENICLINE DOSAGE FORMS” (Handa Pharma, Inc., priority 2021, published 2023)
# What was measured:
# [1] = Nitrosamine test for API and finish product, UPLC-MS/MS; type: physicochemical; settings: for API nitrosamine level (Nitro-P08) (based on varenicline base): initial level of API lot
# Procedure: 4. Nitrosamine Test Method for API and Finish Product
# UPLC-MS/MS, Thermo scientific; Orbitrap Exploris 120
# 4.2. Solution Preparations
# 4.2.2 Mobile phase A: Formic acid: Purified Water (0.1:100), transferred 500 mL purified water to 500 mL analysis bottle, then added 500 μL formic acid and well mixed. Ultrasonic Degassing for 5 min.
# 4.2.3 Mobile phase B: Formic acid: Methanol (0.1:100), transferred 500 mL methanol to 500 mL analysis bottle, then added 500 μL formic acid and well mixed. Ultrasonic degassing for 5 min.
# 4.2.4 Reference stock solution I: Weight about 2.0 mg of 8-nitroso-7,8,9,10-tetrahydro-6H-6,10-methanoazepino[4,5-g]quinoxaline (Nitro-P08) into a 100 mL volumetric flask. Dissolve with methanol and dilute to volume and well mixed (about 20 μg/mL of Nitro-P08).
# 4.2.5 Reference stock solution II: Accurately pipet 5.0 mL of reference stock solution I into a 200-mL volumetric flask, dilute with methanol to volume and well mixed (about 500 ng/mL of Nitro-P08).
# 4.2.6 Reference stock solution III: Accurately pipet 5.0 mL of reference stock solution II into a 50-mL volumetric flask, dilute with methanol to volume and well mixed (about 50 ng/mL of Nitro-P08).
# 4.2.7 Reference solution: Accurately pipet 1.0 mL of reference stock solution III into a 50-mL volumetric flask, dilute with methanol to volume and well mixed.
# Weighted about 25 mg of sample into a 50 mL volumetric flask. Diluted to volume with Diluent and well mixed. Prepared 2 duplication in parallel.
# 4.2.8.2 for Finish Product
# Grind 10 tablets for 1 mg strength or 20 tablets for 0.5 mg strength, accurately weigh and transfer about 0.61 g of powder (equivalent to about 5 mg of Varenicline Tartrate API) into a 50 mL stoppered test tube, add 10 mL of methanol, vortex for 1 min and treat with ultrasound for 20 min. Place it still for 10 min, take an appropriate amount of solution for centrifugation (10000 rpm, 10 min), and then take the supernatant as the test solution. Prepare in duplicates. (Note: Grind the tablets and weigh right before the test sample solution preparation.)
# [2] = Particle size, Mastersizer 3000 laser particle size analyzer, wet method; type: physicochemical
# Procedure: The particle size of five representative lots of varenicline tartrate was determined and the results are as follows:
# Mastersizer 3000 Laser Particle Size Analyzer and Electronic Analytical Balance
# 3.3.1 Preparation N-hexane solution of 0.1% span 85.
# 3.3.2 Weigh about 0.04 g sample and add into 5 mL dispersant, and ultrasonic for 10 min.
# 3.4.1 Cleaning instrument.
# 3.4.2 The above parameters are set,
# 3.4.3 Reconfirm the inspection parameters.
# 3.4.4 Background checks are required.
# 3.4.5 Samples tested and each for 3 times.
# [3] = particle size of varenicline tartrate lot
# [4] = particle size of varenicline tartrate lot, listed as 202012001
# [5] = API lot of compatibility study, 80 mesh
# [6] = particle size of varenicline tartrate lot, listed as 202010004
# [7] = particle size of varenicline tartrate lot, listed as 202012002
substance,measurement,setting,value
Varenicline Tartrate [Lot 201811001],Nitroso impurity [drawing 4] in bulk drug substance (API),"[1]; <30° C., >[…]",18.3 ppm
same,Nitroso impurity [drawing 5] in bulk drug substance (API),"[1]; <30° C., >[…]",<LOQ (0.0289 ppm)
same,D10,[2]; [3],0.878 μm
same,D50,[2]; [3],2.630 μm
same,D90,[2]; [3],32.700 μm
Varenicline Tartrate [Lot 202012001],D10,[2]; [4],1.547 μm
same,D50,[2]; [4],4.088 μm
same,D90,[2]; [4],8.554 μm
Varenicline Tartrate [Lot 6A],API nitrosamine level (Nitro-P08) (based on varenicline base),[1],7.35 ppm
Varenicline Tartrate [Lot 201810001],Nitroso impurity [drawing 4] in bulk drug substance (API),"[1]; <30° C., >[…]",7.1 ppm
same,Nitroso impurity [drawing 5] in bulk drug substance (API),"[1]; <30° C., >[…]",<LOQ (0.0289 ppm)
same,D10,[2]; [3],0.858 μm
same,D50,[2]; [3],2.600 μm
same,D90,[2]; [3],9.660 μm
Varenicline Tartrate [Lot 202101002],Nitroso impurity [drawing 4] in bulk drug substance (API),[1]; initial,1.6 ppm
same,Nitroso impurity [drawing 5] in bulk drug substance (API),[1]; initial,<LOQ (0.0289 ppm)
Varenicline Tartrate [Lot 201702001],D10,[2]; [5],1.1 µm
same,D50,[2]; [5],3.3 µm
same,D90,[2]; [5],11 µm
Varenicline Tartrate [Lot 202010004],D10,[2]; [6],2.339 μm
same,D50,[2]; [6],6.354 μm
same,D90,[2]; [6],11.802 μm
Varenicline Tartrate [Lot 202012002],API nitrosamine level (Nitro-P08) (based on varenicline base),[1]; listed as 6B,1.8 ppm
same,D10,[2]; [7],2.269 μm
same,D50,[2]; [7],5.708 μm
same,D90,[2]; [7],11.288 μm
